In PubChem BioAssay AID1963829 (Molecular Pharmacology Branch, DTP, NCI, 2024):

System: 935938-334-R-J1-PDC complex spheroid viability
Experiment: Anticancer human tumor 935938-334-R-J1-PDC patient-derived small intestine adenocarcinoma cell line growth inhibition [POLQ]
Conditions: for IC50: curve of first compound; for viability, T/C: stronger effect = lower value
Description: Multicellular complex tumor spheroid response to Polymerase (POL) inhibitors (novobiocin, ART-558, RP6685) in combination with a variety of drugs and investigational agents in selected tumor cell lines
The POL inhibitors (novobiocin, ART-558, and RP6685) were evaluated both individually and in combination with standard of care and investigational anticancer small molecules within a complex spheroid model of solid tumors. . Complex spheroids include a stromal component modeled by human endothelial cells (HUVEC) and fibroblasts modeled by human mesenchymal stem cells (MSCs). The concentration ranges selected for each drug and investigational agent were based upon clinically achievable concentrations if the clinical Cmax of the agent was known.
Compounds. The drugs and investigational agents: novobiocin (NSC847541), ART-558 (NSC835418), RP-6685 (NSC848927), peposertib (NSC802822), ceralasertib (NSC780249), elimusertib (NSC800525), camonsertib (NSC841442), AZD-1390 (NSC803789), olaparib (NSC753686), talazoparib (NSC767125), rucaparib (NSC756644), sotorasib (NSC818433), MRTX-1133 (NSC836407), SN-38 (NSC673596), topotecan (NSC609699), epotoside (NSC141540), doxorubicin (NSC123127), gemcitabine (NSC613327), 5-fluorouracil (NSC19893), paclitaxel (NSC125973), vemurafenib (NSC761431), MSA-2 (NSC828583), SN-011 (NSC837082), adavosertib (NSC754352), prexasertib (NSC758257), carboplatin (NSC241240) and oxaliplatin (NSC266046), were obtained from the National Cancer Institute (NCI) Developmental Therapeutics Program Chemical Repository (21). The FDA-approved anticancer drug set is available from the Developmental Therapeutics Program at https://dtp.cancer.gov/organization/dscb/obtaining/. […] The stock solutions were prepared in dimethyl sulfoxide (DMSO, Sigma-Aldrich, St. Louis, MO, cat. D2650), except for the platinum compounds which were prepared in saline (Quality Biological, Gaithersburg, MD, cat. 114-055-101), at 800-fold the tested concentration and stored at -70 degrees C prior to their use. All drugs and investigational agents were tested over a range starting from a high concentration at or near the clinical Cmax and decreasing in half-log increments. If the clinical Cmax for an agent had not been determined, the highest concentration tested was 10 microM, except for SN-38, which was tested at a high concentration of 1 microM.
Cell Culture. All cells were maintained in an incubator at 37 degrees C and 5% CO2 with 95% humidity. The PDC lines were cultured according to standard operating procedures established by the NCI PDMR (https://pdmr.cancer.gov). Table 3 of the manuscript, lists the cell lines along with the number of the three cell types plated to form the mct-spheroids and media for tumor cell growth. After thawing, all PDC lines, except 997537-175-T-J1-PDC and 415267-285-R-J2-PDC, were cultured in Matrigel-coated flasks prepared with a working solution of 1X Ham's F-12 nutrient mix, without supplementation (Thermo Fisher Scientific, cat. 11765054), 100 U/mL penicillin-streptomycin (Thermo Fisher Scientific, cat. 15140122), and 2.5% Matrigel (Corning Inc., Corning, NY, cat. 354248) for the first three passages. The two PDC lines 997537-175-T-J1-PDC and 415267-285-R-J2-PDC were cultured on uncoated flasks. The 857933-349-R-J2-PDC line was cultured in 6C/Colon 1B media containing advanced DMEM/F-12 (Thermo Fisher Scientific, cat. 12634028), 10 mM HEPES (Thermo Fisher Scientific, cat. 15630080), 1X GlutaMAX supplement (Thermo Fisher Scientific, cat. 35050061), 0.1 mg/mL primocin (InvivoGen, San Diego, CA, cat. ant-pm-2), 10% defined fetal bovine serum, heat inactivated (HyClone Laboratories Inc., Logan, UT, cat. SH30070.03HI), 50% L-WRN conditioned media (ATCC, cat. CRL-3276), 1.25 mM N-Acetyl-L-cysteine (Sigma-Aldrich, cat. A9165), 10 mM nicotinamide (Sigma-Aldrich, cat. N0636), 1X B-27 supplement (Thermo Fisher Scientific, cat. 17504044), 1X N-2 supplement (Thermo Fisher Scientific, cat. […]

[1] = second compound 0.0316 µM, first compound 0.0316 µM
[2] = second compound 0.0316 µM, first compound 0.1 µM
[3] = second compound 0.0316 µM, first compound 0.316 µM
[4] = second compound 0.0316 µM, first compound 1 µM
[5] = second compound 0.0316 µM, first compound 3.16 µM
[6] = second compound 0.0316 µM, first compound 10 µM
[7] = second compound 0.1 µM, first compound 0.0316 µM
[8] = second compound 0.1 µM, first compound 0.1 µM
[9] = second compound 0.1 µM, first compound 0.316 µM
[10] = second compound 0.1 µM, first compound 1 µM
[11] = second compound 0.1 µM, first compound 3.16 µM
[12] = second compound 0.1 µM, first compound 10 µM
[13] = second compound 0.316 µM, first compound 0.0316 µM
[14] = second compound 0.316 µM, first compound 0.1 µM
[15] = second compound 0.316 µM, first compound 0.316 µM
[16] = second compound 0.316 µM, first compound 1 µM
[17] = second compound 0.316 µM, first compound 3.16 µM
[18] = second compound 0.316 µM, first compound 10 µM
[19] = second compound 1 µM, first compound 0.0316 µM
[20] = second compound 1 µM, first compound 0.1 µM
[21] = second compound 1 µM, first compound 0.316 µM
[22] = second compound 1 µM, first compound 1 µM
[23] = second compound 1 µM, first compound 3.16 µM
[24] = second compound 1 µM, first compound 10 µM
[25] = second compound 3.16 µM, first compound 0.0316 µM
[26] = second compound 3.16 µM, first compound 0.1 µM
[27] = second compound 3.16 µM, first compound 0.316 µM
[28] = second compound 3.16 µM, first compound 1 µM
[29] = second compound 3.16 µM, first compound 3.16 µM
[30] = second compound 3.16 µM, first compound 10 µM
[31] = second compound 10 µM, first compound 0.0316 µM
[32] = second compound 10 µM, first compound 0.1 µM
[33] = second compound 10 µM, first compound 0.316 µM
[34] = second compound 10 µM, first compound 1 µM
[35] = second compound 10 µM, first compound 3.16 µM
[36] = second compound 10 µM, first compound 10 µM
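Further: spheroids exposed to drugs for seven days before viability read.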
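Wherever viability, T/C is given: 100% = DMSO vehicle control wells.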

O=C(c1cc(Cc2n[nH]c(=O)c3ccccc23)ccc1F)N1CCN(C(=O)C2CC2)CC1 + COC1C(OC(N)=O)C(O)C(Oc2ccc3c(O)c(NC(=O)c4ccc(O)c(CC=C(C)C)c4)c(=O)oc3c2C)OC1(C)C
IC50 (second compound 0.0316 µM): > 10 µM | IC50 (second compound 0.1 µM): > 10 µM | IC50 (second compound 0.316 µM): > 10 µM | IC50 (second compound 1 µM): > 10 µM | IC50 (second compound 3.16 µM): > 10 µM | IC50 (second compound 10 µM): > 10 µM | viability, T/C [1]: 83.4% | viability, T/C [2]: 89.7% | viability, T/C [3]: 87.5% | viability, T/C [4]: 110% | viability, T/C [5]: 79.9% | viability, T/C [6]: 64.6% | viability, T/C [7]: 101% | viability, T/C [8]: 99.1% | viability, T/C [9]: 95.9% | viability, T/C [10]: 90.8% | viability, T/C [11]: 80.8% | viability, T/C [12]: 58% | viability, T/C [13]: 78.4% | viability, T/C [14]: 98.6% | viability, T/C [15]: 90.3% | viability, T/C [16]: 77.4% | viability, T/C [17]: 88.7% | viability, T/C [18]: 85.2% | viability, T/C [19]: 76.7% | viability, T/C [20]: 84.6% | viability, T/C [21]: 102% | viability, T/C [22]: 87.5% | viability, T/C [23]: 94.5% | viability, T/C [24]: 79.4% | viability, T/C [25]: 119% | viability, T/C [26]: 85% | viability, T/C [27]: 107% | viability, T/C [28]: 75.9% | viability, T/C [29]: 64.6% | viability, T/C [30]: 84% | viability, T/C [31]: 94.9% | viability, T/C [32]: 102% | viability, T/C [33]: 80.3% | viability, T/C [34]: 83.8% | viability, T/C [35]: 81.7% | viability, T/C [36]: 69.5%

O=c1[nH]cc(F)c(=O)[nH]1 + COC1C(OC(N)=O)C(O)C(Oc2ccc3c(O)c(NC(=O)c4ccc(O)c(CC=C(C)C)c4)c(=O)oc3c2C)OC1(C)C
IC50 (second compound 0.0316 µM): > 10 µM | IC50 (second compound 0.1 µM): > 10 µM | IC50 (second compound 0.316 µM): 4.82 µM | IC50 (second compound 1 µM): > 10 µM | IC50 (second compound 3.16 µM): 8.13 µM | IC50 (second compound 10 µM): > 10 µM | viability, T/C [1]: 85.7% | viability, T/C [2]: 96.3% | viability, T/C [3]: 76.8% | viability, T/C [4]: 71.9% | viability, T/C [5]: 67.4% | viability, T/C [6]: 57% | viability, T/C [7]: 79.4% | viability, T/C [8]: 103% | viability, T/C [9]: 83.2% | viability, T/C [10]: 63% | viability, T/C [11]: 63.3% | viability, T/C [12]: 55.9% | viability, T/C [13]: 103% | viability, T/C [14]: 76.7% | viability, T/C [15]: 71.9% | viability, T/C [16]: 72.9% | viability, T/C [17]: 60.5% | viability, T/C [18]: 36.5% | viability, T/C [19]: 93% | viability, T/C [20]: 96.4% | viability, T/C [21]: 80.9% | viability, T/C [22]: 52.8% | viability, T/C [23]: 64.5% | viability, T/C [24]: 51.1% | viability, T/C [25]: 87.8% | viability, T/C [26]: 82.5% | viability, T/C [27]: 73.3% | viability, T/C [28]: 64.4% | viability, T/C [29]: 58% | viability, T/C [30]: 48% | viability, T/C [31]: 76.6% | viability, T/C [32]: 82.4% | viability, T/C [33]: 91.5% | viability, T/C [34]: 67.3% | viability, T/C [35]: 52.3% | viability, T/C [36]: 51.3%
